Compound in assay [1]: C[C@@H]1CN(CC(=O)Nc2ccc3c(c2)Cc2cccc(-c4cc(=O)cc(N5CCOCC5)o4)c2S3)C[C@H](C)O1
Nature of the assay: surviving fraction relative to DMSO-only wells; higher = less growth inhibition. The note with it: exposure time: 5 days. Summed up:
(§1)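 Surviving fraction was calculated by normalising CellTiter-Glo luminescence to the median of DMSO-only wells. Tumour cell lines in log phase were seeded in 384-well plates at 250–500 cells per well, and 24 hours later were exposed continuously for five days to inhibitors at 0.5, 1, 5, 10, 50, 100, 500 and 1000 nM.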

Compound in a further assay: Cc1c(N)nc([C@H](CC(N)=O)NC[C@H](N)C(N)=O)nc1C(=O)N[C@H](C(=O)N[C@H](C)[C@@H](O)[C@H](C)C(=O)N[C@H](C(=O)NCCc1nc(-c2nc(C(=O)NCCC[S+](C)C)cs2)cs1)[C@@H](C)O)[C@@H](OC1OC(CO)C(O)C(O)C1OC1OC(CO)C(O)C(OC(N)=O)C1O)c1cnc[nH]1 [BLEOMYCIN]
Described as above. The note with it: exposure time: 5 days. Summed up: as §1

± gives the standard deviation of the averaged measurements.

As for MDAMB453 BREAST, the surviving fraction in assay [1] (0.5 nM) was 1.02 ± 0.027; in assay [1] (1 nM), 0.937 ± 0.054; in assay [1] (5 nM) it was 0.994 ± 0.023; in assay [1] (10 nM), 0.966 ± 0.035; in assay [1] (50 nM) it was 0.937 ± 0.023; in assay [1] (100 nM) it was 0.897 ± 0.046. Besides, the surviving fraction in assay [1] (500 nM) is 0.9723 ± 0.0063; in assay [1] (1000 nM) it was 0.988 ± 0.039; with BLEOMYCIN (0.5 nM), 1.06 ± 0.051; with BLEOMYCIN (1 nM), 1.03 ± 0.011; in the assay with BLEOMYCIN (5 nM), 1.05 ± 0.045; with BLEOMYCIN (10 nM), 1.09 ± 0.064. Further, the surviving fraction in the assay with BLEOMYCIN (50 nM) came out at 1.067 ± 0.009; in the assay with BLEOMYCIN (100 nM), 1.14 ± 0.052; with BLEOMYCIN (500 nM), 0.851 ± 0.061; with BLEOMYCIN (1000 nM), 0.711 ± 0.024.

As to MDAMB436 BREAST, the surviving fraction amounted to 0.892 ± 0.043 in assay [1] (0.5 nM); 0.962 ± 0.095 in assay [1] (1 nM); 0.922 ± 0.027 in assay [1] (5 nM); 0.928 ± 0.058 in assay [1] (10 nM); 0.858 ± 0.067 in assay [1] (50 nM); 0.805 ± 0.068 in assay [1] (100 nM). For the same test system, the surviving fraction in assay [1] (500 nM) was found to be 0.761 ± 0.029; in assay [1] (1000 nM), 0.611 ± 0.066; in the assay with BLEOMYCIN (0.5 nM), 0.799 ± 0.027; with BLEOMYCIN (1 nM), 0.825 ± 0.031; in the assay with BLEOMYCIN (5 nM), 0.834 ± 0.024; in the assay with BLEOMYCIN (10 nM) it was 0.791 ± 0.033. Further, the surviving fraction was 0.773 ± 0.031 in the assay with BLEOMYCIN (50 nM), 0.814 ± 0.06 with BLEOMYCIN (100 nM), 0.598 ± 0.056 with BLEOMYCIN (500 nM) and 0.506 ± 0.073 in the assay with BLEOMYCIN (1000 nM).

Consider SIHA CERVIX, for which the surviving fraction in assay [1] (0.5 nM) worked out at 1.04 ± 0.022; in assay [1] (1 nM), 1.1 ± 0.082; in assay [1] (5 nM) it was 1.09 ± 0.0035; in assay [1] (10 nM), 1.06 ± 0.023; in assay [1] (50 nM) it was 1.04 ± 0.062; in assay [1] (100 nM), 1.08 ± 0.084. Also, the surviving fraction stood at 1.02 ± 0.11 in assay [1] (500 nM); 0.931 ± 0.051 in assay [1] (1000 nM); 0.959 ± 0.083 with BLEOMYCIN (0.5 nM); 0.957 ± 0.017 with BLEOMYCIN (1 nM); 1.02 ± 0.042 with BLEOMYCIN (5 nM); 1.02 ± 0.046 with BLEOMYCIN (10 nM). Further, the surviving fraction with BLEOMYCIN (50 nM) stood at 1.08 ± 0.071; with BLEOMYCIN (100 nM) it was 1.08 ± 0.059; in the assay with BLEOMYCIN (500 nM), 0.961 ± 0.053; with BLEOMYCIN (1000 nM), 0.967 ± 0.024.

Take 143B BONE: the surviving fraction came to 1.03 ± 0.034 in assay [1] (0.5 nM); 0.994 ± 0.016 in assay [1] (1 nM); 1.02 in assay [1] (5 nM); 1.02 ± 0.03 in assay [1] (10 nM); 1.03 ± 0.035 in assay [1] (50 nM); 1.01 ± 0.013 in assay [1] (100 nM). For the same test system, the surviving fraction in assay [1] (500 nM) was 1 ± 0.011; in assay [1] (1000 nM), 0.9405 ± 0.0064; with BLEOMYCIN (0.5 nM), 0.978 ± 0.023; in the assay with BLEOMYCIN (1 nM), 0.98 ± 0.023; with BLEOMYCIN (5 nM), 0.995 ± 0.012; in the assay with BLEOMYCIN (10 nM), 1.01 ± 0.042. In addition, the surviving fraction is 0.946 ± 0.0014 in the assay with BLEOMYCIN (50 nM), 0.977 ± 0.0014 in the assay with BLEOMYCIN (100 nM), 0.82 ± 0.03 with BLEOMYCIN (500 nM) and 0.612 ± 0.028 with BLEOMYCIN (1000 nM).

Take U2OS BONE: the surviving fraction in assay [1] (0.5 nM) is 1.06 ± 0.052; in assay [1] (1 nM), 1.09 ± 0.057; in assay [1] (5 nM), 1.08 ± 0.029; in assay [1] (10 nM) it was 1.08 ± 0.025; in assay [1] (50 nM), 1.1 ± 0.058; in assay [1] (100 nM) it was 1.09 ± 0.061. Moreover, the surviving fraction in assay [1] (500 nM) worked out at 1.03 ± 0.048; in assay [1] (1000 nM), 1.02 ± 0.05; with BLEOMYCIN (0.5 nM), 0.904 ± 0.028; with BLEOMYCIN (1 nM) it was 0.942 ± 0.05; with BLEOMYCIN (5 nM), 0.933 ± 0.04; with BLEOMYCIN (10 nM) it was 0.9 ± 0.039. Besides, the surviving fraction was 1.01 ± 0.023 with BLEOMYCIN (50 nM), 0.8983 ± 0.0064 in the assay with BLEOMYCIN (100 nM), 0.734 ± 0.017 with BLEOMYCIN (500 nM) and 0.617 ± 0.011 with BLEOMYCIN (1000 nM).

For COLO320DM LARGE INTESTINE, the surviving fraction in assay [1] (0.5 nM) amounted to 1.04 ± 0.11; in assay [1] (1 nM) it was 1.06 ± 0.12; in assay [1] (5 nM), 1.05 ± 0.13; in assay [1] (10 nM), 1.07 ± 0.059; in assay [1] (50 nM), 1.04 ± 0.033; in assay [1] (100 nM), 1.09 ± 0.037. The surviving fraction in assay [1] (500 nM) was determined as 1.03 ± 0.056; in assay [1] (1000 nM), 0.99 ± 0.015; with BLEOMYCIN (0.5 nM), 1.09 ± 0.042; with BLEOMYCIN (1 nM), 0.972 ± 0.025; in the assay with BLEOMYCIN (5 nM), 1.03 ± 0.058; with BLEOMYCIN (10 nM), 1.04 ± 0.099. Further, the surviving fraction was determined as 1.15 ± 0.22 with BLEOMYCIN (50 nM), 0.89 ± 0.052 with BLEOMYCIN (100 nM), 0.868 ± 0.057 in the assay with BLEOMYCIN (500 nM) and 0.675 ± 0.024 with BLEOMYCIN (1000 nM).

In the case of VCAP PROSTATE, the surviving fraction in assay [1] (0.5 nM) was determined as 1.01 ± 0.035; in assay [1] (1 nM) it was 1.08 ± 0.066; in assay [1] (5 nM), 1.11 ± 0.14; in assay [1] (10 nM), 1.18 ± 0.15; in assay [1] (50 nM) it was 1.19 ± 0.094; in assay [1] (100 nM), 1.14 ± 0.11. The surviving fraction came to 0.922 ± 0.057 in assay [1] (500 nM); 0.967 ± 0.079 in assay [1] (1000 nM); 0.905 ± 0.018 in the assay with BLEOMYCIN (0.5 nM); 0.953 ± 0.077 with BLEOMYCIN (1 nM); 1.07 ± 0.12 in the assay with BLEOMYCIN (5 nM); 1.05 ± 0.12 in the assay with BLEOMYCIN (10 nM). The surviving fraction amounted to 1.07 ± 0.12 with BLEOMYCIN (50 nM), 1.02 ± 0.078 with BLEOMYCIN (100 nM), 0.84 ± 0.024 in the assay with BLEOMYCIN (500 nM) and 0.889 ± 0.081 in the assay with BLEOMYCIN (1000 nM).

For the test system YAMATO SYNOVIAL, the surviving fraction amounted to 1.41 ± 0.1 in assay [1] (0.5 nM); 1.44 ± 0.13 in assay [1] (1 nM); 1.38 ± 0.1 in assay [1] (5 nM); 1.46 ± 0.03 in assay [1] (10 nM); 0.925 ± 0.031 in assay [1] (50 nM); 0.965 ± 0.046 in assay [1] (100 nM). For the same test system, the surviving fraction in assay [1] (500 nM) is 0.884 ± 0.14; in assay [1] (1000 nM), 0.855 ± 0.045; in the assay with BLEOMYCIN (0.5 nM), 0.889 ± 0.13; with BLEOMYCIN (1 nM), 0.929 ± 0.095; with BLEOMYCIN (5 nM), 0.955 ± 0.081; with BLEOMYCIN (10 nM), 1.03 ± 0.075. For the same test system, the surviving fraction with BLEOMYCIN (50 nM) came out at 1.21 ± 0.083; with BLEOMYCIN (100 nM), 1.11 ± 0.08; in the assay with BLEOMYCIN (500 nM) it was 0.871 ± 0.088; in the assay with BLEOMYCIN (1000 nM), 0.796 ± 0.033.
